Each structure is given as a SMILES string.

For experiment [1] the following is noted: cited from earlier work.
The procedure of experiment [2]: Patient they are in the ninth month of pregnant without diabetes or hypertension or neuropathy antecedents. […] Twenty four hours later Amikacina IM every 12 hours was administered. […] It was decided to administrate nicotine in watery vehicle by sublingual pathway in a concentration of 3 mg/ml.
At the beginning 15 drops were administrated and 30 minutes later 10 drops more. […] Nicotine was administrated during 4 weeks in dosis of 5 drops by sublingual pathway every three hours.

For experiment [3] the following is noted: 2 drops sublingual every hour. The source says:
Patient with post traumatic bleeding (hyphema). […] We indicated a dosis of 2 drops sublingual pathway every hour, for the hyphema was of 90% the vision was poor and the intraocular pressure was 40 mmHg despite last treatment. All medicine was suspended and began the new treatment.

The conditions of experiment [4]: twenty four hours later.

Take `C/C(=N\N=C(N)N)c1cc(NC(=O)CCCCCCCCC(=O)Nc2cc(/C(C)=N/N=C(N)N)cc(/C(C)=N/N=C(N)N)c2)cc(/C(C)=N/N=C(N)N)c1.Cl.Cl.Cl.Cl` [CNI-1493]: the “subyacent renal trauma by ischemia/reperfussion” value in experiment [1] (in vivo) is “does not have effect”. The distant pulmonary trauma entry in experiment [1] (renal ischemia/reperfussion) is “partialy reduces”.
`CN1CCCC1c1cccnc1` (stereo not shown) [nicotine]: the pain entry in experiment [2] (nicotine 3 mg/ml in watery vehicle, sublingual, 15 drops then 10 drops 30 minutes later) is “diminished significantly”. Also, the general physical state result in experiment [2] (nicotine 3 mg/ml sublingual) was “improves in the dramatic form”. In experiment [3] (after four weeks), this compound showed a recovery of 90%. Further, the vision in experiment [3] (three weeks later) is 20/40. In addition, the weight increase in experiment [4] came out at 80 grams.
